Values of other authors in patent US20080057122A1, “Acetaminophen pharmaceutical compositions” (priority 2006, published 2008).

Question: With `CCC(=O)O[C@](Cc1ccccc1)(c1ccccc1)[C@H](C)CN(C)C` [propoxyphene] as the molecule, how does the early half-life (in vivo) read?
Answer: The early half-life was 6 to 12 h.

Question: And the terminal half-life (in vivo)?
Answer: Its terminal half-life is “approximately 20 hours”.

Question: Which “time in which peak concentrations are reached” value (Darvocet-N 100 immediate release tablets) does the source give for `CC(=O)Nc1ccc(O)cc1` [acetaminophen] here?
Answer: Its value is at most 2 h.
